Data as given in patent US6814960B1, “Hydroxystilbene compounds used as microbicidal active substances” (Ciba Specialty Chemicals Corporation, priority 1998, dated 2004).

Columns and labels:
Assay in all cases: MIC value in microtitre plates (optical density)
Assay type in all cases: cell-based
[1] = system: Aspergillus niger ATCC 6275; conditions: microtitre plate, Sabouraud 2% glucose bouillon, 5 days at 28° C., optical density 620 nm, ≦20% growth; some data indicative values
Method: (§1) Determination of the Minimum Inhibiting Concentration (MIC Value) in Microtitre Plates
(§2) Casein/soybean flour peptone bouillon for the preparation of the precultures of the test bacteria and yeast.
(§3) Mycological slant agar for the preculture of moulds.
(§4) Examples of Test Organisms
(§5) The test substances are predissolved in dimethyl sulfoxide (DMSO) and tested in a serial dilution of 1:2.
(§6) Bacteria and yeast are cultured overnight in CASO bouillon, the mould on mycological slant agar and rinsed off with 10 ml of 0.85% sodium chloride solution (+0.1% TritonX-100).
(§7) All test organisms are adjusted to an organism count of 1.5×10^6 CFU/ml with 0.85% sodium chloride solution.
(§8) The test substances are prepipetted into microtitre plates in an amount of 8 μl per well.
(§9) Previously diluted organism substances are diluted 1:100 in CASO bouillon (bacteria and yeast) and Sabouraud 2% glucose bouillon (mould) and added to the test substances in an amount of 192 μl per well.
(§10) The test batches are incubated for 48 hours at 37° C. (bacteria and yeast) or for 5 days at 28° C. (mould).
(§11) After incubation, the growth is determined by reference to the turbidity of the test batches (optical density) at 620 nm in a microplate reader.
(§12) The minimum inhibiting concentration (MIC value) is the concentration of substance at which (compared with the growth control) an appreciable inhibition of the growth (≦20% growth) of the test organisms is ascertained.
(§13) One microtiter plate is used for each test organism and substance concentration. All substances tested in duplicate.

[2] = system: Candida albicans ATCC 10231; conditions: microtitre plate, CASO bouillon, 48 hours at 37° C., optical density 620 nm, ≦20% growth; some data indicative values
Method: as §1, §2, §3, §4, §5, §6, §7, §8, §9, §10, §11, §12, §13

[3] = system: Escherichia coli NCTC 8196; conditions: microtitre plate, CASO bouillon, 48 hours at 37° C., optical density 620 nm, ≦20% growth; some data indicative values
Method: as §1, §2, §3, §4, §5, §6, §7, §8, §9, §10, §11, §12, §13

[4] = system: Pseudomonas aeruginosa CIP A-22; conditions: microtitre plate, CASO bouillon, 48 hours at 37° C., optical density 620 nm, ≦20% growth; some data indicative values
Method: as §1, §2, §3, §4, §5, §6, §7, §8, §9, §10, §11, §12, §13

[5] = system: Staphylococcus hominis DSM 20328; conditions: microtitre plate, CASO bouillon, 48 hours at 37° C., optical density 620 nm, ≦20% growth; some data indicative values
Method: as §1, §2, §3, §4, §5, §6, §7, §8, §9, §10, §11, §12, §13

| Compound | MIC values A. niger [1] [ppm] | MIC values C. albicans [2] [ppm] | MIC values E. coli [3] [ppm] | MIC values P. aeruginosa [4] [ppm] | MIC values S. heminis [5] [ppm] |
| --- | --- | --- | --- | --- | --- |
| COc1ccc(/C=C/c2ccc(O)cc2)cc1 [Comp. of formula 131] | >100 | >100 | >100 | >100 | >100 |
| COc1ccc(/C=C/c2cccc(O)c2)cc1 [Comp. of formula 132] | >100 | >100 | >100 | >100 | >100 |
| COc1ccc(/C=C/c2ccc(OC)c(O)c2)cc1 [Comp. of formula 133] | >100 | >100 | >100 | >100 | >100 |
| CCOc1cc(/C=C/c2ccc(OC)cc2)ccc1O [Comp. of formula 134] | >100 | >100 | >100 | >100 | >100 |
| COc1ccc(/C=C/c2ccc(O)c(OC)c2)cc1 [Comp. of formula 135] | >100 | >100 | >100 | >100 | >100 |
| COc1ccc(/C=C/c2ccccc2O)cc1 [Comp. of formula 137] | >100 | >100 | 100 | >100 | >100 |
| COc1ccc(/C=C/c2cc(O)c(OC)c(OC)c2)cc1 [Comp. of formula 138] | >100 | >100 | >100 | >100 | >100 |
| COc1ccc(/C=C/c2cccc(C)c2O)cc1 [Comp. of formula 140] | 100 | >100 | >100 | >100 | >100 |
| Oc1ccc(/C=C/c2ccc(-c3ccccc3)cc2)cc1 [Comp. of formula 143] | >100 | >100 | >100 | >100 | >100 |
| Oc1cccc(/C=C/c2ccc(-c3ccccc3)cc2)c1 [Comp. of formula 145] | >100 | >100 | >100 | >100 | >100 |
| COc1ccc(/C=C/c2ccc(-c3ccccc3)cc2)cc1O [Comp. of formula 146] | >100 | >100 | >100 | >100 | >100 |
| CCOc1cc(/C=C/c2ccc(-c3ccccc3)cc2)ccc1O [Comp. of formula 147] | >100 | >100 | >100 | >100 | >100 |
| COc1cc(/C=C/c2ccc(-c3ccccc3)cc2)ccc1O [Comp. of formula 148] | >100 | >100 | >100 | >100 | >100 |
| Oc1ccccc1/C=C/c1ccc(-c2ccccc2)cc1 [Comp. of formula 150] | >100 | >100 | >100 | >100 | >100 |
